The values below come from patent US8697747B2, “Enhancing coagulation or reducing fibrinolysis” (THe UAB Research Foundation, priority 2009, dated 2014).

This assay has as its system pooled normal plasma. Kind of assay: Clot lifespan model (CLSM) thrombelastography with tPA, normal plasma. Format: biochemical, human. Particulars: 100 μM. As for the experimental part:
Pooled normal plasma (George King Bio-Medical, Overland Park, Kans.) anticoagulated with sodium citrate was utilized for experimentation. […] Factor XIII (FXIII) deficient plasma anticoagulated with sodium citrate was also obtained from the same vendor.
Plasma Sample Composition. The final volume for all subsequently described plasma sample mixtures was 359.4 μL. Sample composition consisted of 316 μL of plasma; 10 μL of tissue factor (0.1% final concentration in 0.9% NaCl; Diagnostica Stago, Asnieres, France), 3.6 μL of dimethyl sulfoxide (DMSO) or DMSO with CORM-2 (Sigma-Aldrich, St. Louis, Mo.) or DMSO with inactivated CORM-2 (iCORM-2), 10 μL of tissue-type plasminogen activator (tPA, 580 U/μg, Genentech, Inc., San Francisco, Calif.) diluted with 10 mM potassium phosphate buffer (pH 7.4) for a final activity of 100 IU/mL, and 20 μL of 200 mM CaCl2. […] This concentration of CORM-2 was chosen because the concentration of CO released would be expected to be in the mid to lower ranges used in previously reported ex vivo, in vitro, and cell-based experiments (Motterlini et al. 2002; Megias et al. 2007; Chlopicki et al. 2006; Dong et al. 2008). […] (Motterlini et al. 2005). While CORM-2 decays slowly in DMSO, DMSO was added to the dry compound just prior to placement into the plasma mixture. The specific series of experiments are subsequently presented.
Concentration-Response Relationships of CORM-2 and iCORM-2 with Clot Lifespan Model (CLSM) Parameters. Normal plasma was exposed to 0, 25, 50, 100 or 200 μM CORM-2 (n=4 per concentration. Additional plasma samples were exposed to 25, 50 or 100 μM iCORM-2 (n=4 per concentration). Samples underwent CLSM analyses as subsequently described.
Comparison of the Effects of CORM-2 and iCORM-2 on CLSM Parameters in Normal Plasma. Given the results of the aforementioned experiments, additional samples of normal plasma were exposed to 0 or 100 μM of CORM-2 or iCORM-2 (n=4 per additional sample condition, n=8 per condition for final analyses). Samples underwent CLSM analyses as subsequently described.
Clot Lifespan Model Analyses. As described in Example 1, plasma sample mixtures were placed in a disposable cup in a computer-controlled THROMBELASTOGRAPH® hemostasis system (Model 5000, Haemoscope Corp., Niles, Ill.), with addition of CaCl2 as the last step to initiate clotting. Data were collected until clot lysis time occurred. […] As this model involves complete fibrinolysis, TTG is equivalent to ACL, so ACL was not presented as it provides no additional information.
Statistical Analyses. Data are presented as median (1st, 3rd quartiles). […] Nonlinear and linear analyses and curve fitting of the various CORM-2 concentrations effects on CLSM variables were performed with commercially available software (SigmaPlot 11.0, Systat Software, Inc., San Jose, Calif.). Analyses of the effects of CORM-2 and iCORM-2 on CLSM variables in normal plasma were conducted with Kruskal-Wallis one way analysis of variance on ranks, whereas Mann-Whitney rank sum tests were used to assess the effects of CORM-2 on CLSM variables in the various immunodepleted/congenitally deficient plasma types (SigmaStat 3.1, Systat Software, Inc., San Jose, Calif.). Graphical representation of the data was generated with commercially available software (SigmaPlot 11.0, Systat Software, Inc., San Jose, Calif.; CorelDRAW 12.0, Corel Corporation, Ottawa, Ontario, Canada; Origin 7.5, OriginLab Corp., Northampton, Mass.). A P value of <0.05 was considered significant.

In the case of `[C-]#[O+].[C-]#[O+].[C-]#[O+].[C-]#[O+].[C-]#[O+].[C-]#[O+].[Cl][Ru][Cl].[Cl][Ru][Cl]` [CORM-2, tricarbonyldichlororuthenium (II) dimer], for the setting “tPA”, the “delay of the onset of fibrinolysis vs samples not exposed” value came to 258%, the “enhancement of strength of the clot vs samples not exposed” value was 113%, the “enhancement of the velocity of growth vs samples not exposed” value stood at 120% and the “increase in CGT vs 0 μM CORM-2” value was 126%. For the same molecule, where the note is “tPA”, the “increase in CLS vs 0 μM CORM-2” value came out at 145% and the “increase in CLT vs 0 μM CORM-2” value came to 143%. Also, where the note is “tPA 100 IU/mL, median, n=8”, the “CGT (clot growth time)” value amounted to 508 s, the “CLS (clot lifespan)” value is 2325 s, the “CLT (clot lysis time)” value was determined as 1768 s and the “MRL (maximum rate of lysis)” value is listed as −1.9 -dynes/cm^2/sec. For the setting “tPA 100 IU/mL, median, n=8”, the “MRTG (maximum rate of thrombus generation)” value is reported as 9.7 dynes/cm^2/sec, the “TMRL (time to maximum rate of lysis)” value was found to be 1218 s, the “TMRTG (time to maximum rate of thrombus generation)” value was determined as 155 s and the “TTG (total thrombus generation)” value is 281 dynes/cm^2.
